Values quoted from earlier work as cited in patent US20240390363A1, “GRANULES CONTAINING POSACONAZOLE” (ALFRED E. TIEFENBACHER (GMBH & CO. KG), priority 2021, published 2024).

Legend:
[1] = forms compared with form I
[2] = storage or stress conditions; form IV: aqueous suspension

Aqueous / water solubility [1]	SMILES	Stability of the crystalline form [2]
low aqueous solubility	CC[C@@H]([C@H](C)O)n1ncn(-c2ccc(N3CCN(c4ccc(OC[C@@H]5CO[C@@](Cn6cncn6)(c6ccc(F)cc6F)C5)cc4)CC3)cc2)c1=O [Posaconazole]	–
better water solubility	CC[C@@H]([C@H](C)O)n1ncn(-c2ccc(N3CCN(c4ccc(OC[C@@H]5CO[C@@](Cn6cncn6)(c6ccc(F)cc6F)C5)cc4)CC3)cc2)c1=O [form IV, posaconazole]	better stability in an aqueous suspension
better water solubility	CC[C@@H]([C@H](C)O)n1ncn(-c2ccc(N3CCN(c4ccc(OC[C@@H]5CO[C@@](Cn6cncn6)(c6ccc(F)cc6F)C5)cc4)CC3)cc2)c1=O [form Y, posaconazole]	as stable as form I
